Results taken from patent US5318776A, “Composition for preventing graying of the hair” (priority 1988, dated 1994).

What was measured:
[1] = tested on: grayed hair (melanocytes); experiment: Inhibition of generation of grayed hair in stressed black mice; format: in vivo; details: Table V, 0.05% test compound in hair tonic, 0.1 ml twice a day, 1 month, control 17.1
Procedure: It is known that stress is one of the causes of graying of the hair. […] Moreover, the stability of the composition with time was also estimated.
(§1) One month thereafter, regenerated hair was collected from a constant area and the rate (%) of generated grayed hair to all the number of hair collected was estimated. In addition, the aforementioned hair tonic type preparations were allowed to stand at 30° C. for 3 months and the residual amount of the test compounds therein was examined by liquid chromatography as well as the degree of change in smell was also evaluated by means of sensory test.
(§2) One month thereafter, regenerated hair was collected from a constant area and the rate (%) of generated grayed hair to all the number of hair collected was estimated. In addition, the aforementioned compositions were allowed to stand at 30° C. for 3 months and the residual amount of the test compounds therein was examined by liquid chromatography as well as the degree of change in smell was also evaluated by sensory test. […] In addition, the abbreviation P means the averaged added molar number of ethylene oxide residues.

grayed hair = experiment: Half-Head technique application to scalp of men having grayed hair; format: in vivo, men (40 to 60 years old)
Procedure: Then, the effects of preventing graying of the hair and restoring grayed hair to its natural color were evaluated by comparing the conditions of the portions observed before and after the application of Samples and the results obtained were listed in the following Table VIII. […]
Then, the effectiveness of the hair cream of the invention and that of Comp.

[2] = Sensory test: degree of change in smell after standing at 30° C. for 3 months;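 as to Stability S.E. (Sensory Evaluation): double circle means no smell deterioration on a four-grade scale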; format: physicochemical; details: for Stability S.E. (Sensory Evaluation): Table V, 0.05% in hair tonic, 30° C., 3 months
Procedure: as §1, §2

[3] = Stability: residual amount of test compound after standing at 30° C. for 3 months, liquid chromatography; format: physicochemical; details: for remaining at 2190 h: read-out: Stability Residue(%)
Procedure: as §1, §2

[4] = hair tonic, Table V, 0.05% in hair tonic, 30° C., 3 months
[5] = Example 6, hair tonic as in Example 3

Structure (SMILES)	Rate of Grayed Hair (%) [1] [%]	effect of preventing graying of the hair and restoring grayed hair to its natural color (in words) (grayed hair; Example 7, hair cream as in Example 5)	quality deterioration such as giving out of bad smell ([2]; Example 7, hair cream)	Stability S.E. (Sensory Evaluation) [2]	stability (in words) ([3]; Example 7, hair cream)	remaining at 2190 h [3, 4] [%]	effect of preventing graying of the hair and restoring grayed hair to its natural color (in words) (grayed hair; [5])	quality deterioration such as giving out of bad smell ([2]; Example 6, hair tonic)	stability (in words) ([3]; Example 6, hair tonic)	Stability Residue(%) ([3]; Table V, 0.05% in hair tonic, 30° C., 3 months, 131400 min)	effect of preventing graying of the hair and restoring grayed hair to its natural color (in words) (grayed hair; Examples 3 to 5, Half-Head, men, 3 months)
CCCCSc1nc2c(N)ncnc2n1[C@@H]1O[C@@H]2COP(=O)(O)O[C@H]2[C@H]1O [8-butylthio cAMP-Na]	6.5	the same effect of preventing graying of the hair and restoring grayed hair to its natural color as in Example 5	did not cause quality deterioration such as giving out of bad smell	.circleincircle.	stable	99.9	–	–	–	–	–
CCOc1nc2c(N)ncnc2n1[C@@H]1O[C@@H]2COP(=O)(O)O[C@H]2[C@H]1O [8-ethoxy cAMP-Na]	5.3	–	–	.circleincircle.	–	99.8	the same effect of preventing graying of the hair and restoring grayed hair to its natural color as in Example 3	did not cause quality deterioration such as giving out of bad smell	stable	–	–
Nc1ncnc2c1nc(SCCO)n2[C@@H]1O[C@@H]2COP(=O)([O-])O[C@H]2[C@H]1O.[Na+] [8-ethylhydroxythio cAMP-Na]	5.5	–	–	.circleincircle.	–	–	the same effect of preventing graying of the hair and restoring grayed hair to its natural color as in Example 3	did not cause quality deterioration such as giving out of bad smell	stable	99.6	–
Nc1ncnc2c1nc(O)n2[C@@H]1O[C@@H]2COP(=O)(O)O[C@H]2[C@H]1O [8-hydroxy cAMP-Na]	5.6	–	–	.circleincircle.	–	99.7	the same effect of preventing graying of the hair and restoring grayed hair to its natural color as in Example 3	did not cause quality deterioration such as giving out of bad smell	stable	–	–
COc1nc2c(N)ncnc2n1[C@@H]1O[C@@H]2COP(=O)(O)O[C@H]2[C@H]1O [8-methoxy cAMP-Na]	4.5	–	–	.circleincircle.	–	99.9	–	–	–	–	remarkable effects of preventing graying of the hair and restoring grayed hair to its natural color
